Laboratory results taken from patent US4791215A, “Derivatives of glutamic acid and aspartic acid” (priority 1984, dated 1988).
“And” between values parts separate entries of the source, which are not always exact repeats. Equal values may be shown once.

Columns and labels:
[1] = tested on: intestinal transit of carbon; experiment: Anti-spastic activity, vegetable carbon intestinal transit test; type: in vivo, mice; conditions: Mus musculus, ip; read-out: antispastic activity ED50 (dose reducing intestinal transit of carbon by 50%)
Description: The anti-spastic activity which the present compounds exert on the entire digestive system is also notable. Measured in mice with the vegetable carbon test (rate of transit through the stomach and the intestine), this activity is illustrated in the following table.
claimed administered intraperitoneally in mice. Values
expressed as the ED 50 in mg/kg, that is the dose which
reduces the intestinal transit of carbon by 50%

[2] = tested on: CCK-8 induced contraction of guinea pig gall bladder; experiment: Anti-CCK-8 activity on gall bladders in situ; type: in vivo; conditions: for percentage inhibition of contracting effect of CCK-8: single experiments
Method: In order to confirm the evidence of the studies in vitro several of the more interesting compounds were tested in vivo on guinea pig gall baldders in situ.
The method used is that described by Ljungberg (Svensk. Farm. Tidskr. 68, 351-354, 1964).
Guinea pigs having a weight of about 400 g, anaesthetised with urethane, were used; the substances under examination were administered intraveneously into the jugular vein.
The responses of the gall bladders to the substances under test were detected by means of a force transducer and recorded by means of a microdynamometer. The optimum contracting dose was chosen as 10 ng/kg of CCK-8. The antagonist compounds tested were administered in increasing doses so as to enable the calculation of an ED50 value, that is in the dose (in mg/kg i.v.) capable of inhibiting 50% of the contracting effect of 10 ng/kg i.v. of CCK-8.
The results obtained are given in Table 7 below, which gives the doses used and the effects obtained expressed as a percentage inhibition of the contracting effect of CCK-8 as well as the ED50 found.

[3] = tested on: enkephalinamide (DALA) analgesia; experiment: Potentiation of DALA (enkephalinamide) analgesia, i.c.v., Tail Flick Test (Experiment 4); type: in vivo, rats; set-up: scale not given here
Description: Experiment No. 4: Potentiation of the analgesic activities of enkephalins induced by some of the compounds of the invention. […]

[4] = tested on: activity of analgesic drugs; experiment: Hot-plate test, potentiation of analgesic drugs (Experiment 2); type: in vivo, rats
Method: Experiment No. 2: Hot-plate test
The method is that described by Eddy et al. (J. Pharmac. Exp. Ther. 107, 385 (1953)).
Groups of five male rats having a weight of about 150 g, and which have not fasted, are used.
The animals are placed on a metal plate on the bottom of a transparent cylinder, which is heated to 55°±1° C. by an azeotropic boiling mixture (acetone-ethyl formate 1:1).
The reaction time is defined as the interval which passes between the moment at which the animal is placed on the hot-plate and the moment at which it either licks its feet or tries to jump out of the cylinder. The control reaction time is measured 10 and 5 minutes before administration of the drugs and 10, 20, 30, 45, 60 and 90 minutes afterwards. The animals are left on the plate for a maximum period of 30 seconds.
The response to the administration of the product is considered positive if at least a doubling of the normal reaction time is seen. The results obtained are given in Tables 2a and 2b which record the groups treated, the doses administered and the stay times on the plate expressed as the number of positive responses over the number treated.

[5] = tested on: tolerance induced by morphine; experiment: Antagonism to development of tolerance to repeated morphine HCl, Tail Flick Test (Experiment 5); conditions: compound 10 mg/kg + morphine 5 mg/kg i.p.
Method: Experiment No. 5: Antagonism of several products of the invention to the development of tolerance induced in rats by the repeated administration of morphine HCl.
Several of the compounds of the invention were examined to determine their possible capacity to antagonise the development of tolerance induced by morphine. Groups of 6 male rats having a weight of about 200-250 grams were used.
At intervals of 24 hours from the first treatment (time 0) each animal (except the control group treated physiologically) received 5 mg/kg of morphine hydrochloride i.p. together with 10 mg/kg i.p. of the compounds indicated (with the exception of the group treated solely with morphine).
The determination of the pain threshold was effected 15', 30', 45' and 60' from the treatment by the Tail Flick Test.

[6] = tested on: biliary flow; experiment: Biliary flow (choleretic activity); type: in vivo, rat
Method: The following experiment was carried out: a cannula was inserted in the bile duct of a rat anaesthetised with urethane, together with a small needle connected to a polythene tube, and the bile liquid was thus collected. The collection was carried out for one hour before the intravenous administration of the tested compounds and for a further two hours after administration, the samples collected at 30 minute intervals being weighed.
In order to prevent possible dehydration of the animals, 0.5 ml of physiological solution was administered at 30 minute intervals up to a total of 3 ml.

## CCCCCN(CCCCC)C(=O)C(CCC(=O)O)NC(=O)c1ccc(Cl)c(Cl)c1 (stereo not shown) [Compound C-7]
[1]
  ED50: 16.8 mg/kg
[2]; 0.003 mg/kg i.v.
  percentage inhibition of contracting effect of CCK-8: -10.6%
[2]; 0.03 mg/kg i.v.
  percentage inhibition of contracting effect of CCK-8: -62.1% and -57.0% and -59.2%
[2]; 0.1 mg/kg
  block of gall bladder contractions induced by CCK-8: can block gall bladder contractions induced by CCK-8
[2]; Cavia porcellus, iv, CCK-8 10 ng/kg i.v., read-out: ED50 (inhibition of 50% of contracting effect of CCK-8)
  ED50: 0.02 mg/kg

## CCCN(CCC)C(=O)C(CCC(=O)O)NC(=O)c1cccc(C#N)c1 (stereo not shown) [Compound C-20]
[3]; DALA 10 + compound 0.003 μg/kg ICV, 10'
  analgesic activity, Tail Flick: 5.7
[3]; DALA 10 + compound 0.003 μg/kg ICV, 20'
  analgesic activity, Tail Flick: 44.6
[3]; DALA 10 + compound 0.003 μg/kg ICV, 30'
  analgesic activity, Tail Flick: 32.3
[3]; DALA 10 + compound 0.003 μg/kg ICV, 45'
  analgesic activity, Tail Flick: 30.1
[3]; DALA 10 + compound 0.003 μg/kg ICV, 60'
  analgesic activity, Tail Flick: 24.5
[3]; DALA 10 + compound 0.003 μg/kg ICV, 90'
  analgesic activity, Tail Flick: 72.
[3]; DALA 10 + compound 0.003 μg/kg ICV
  MEAN analgesic activity, Tail Flick: 24.1
[3]; DALA 10 + compound 0.01 μg/kg ICV, 10'
  analgesic activity, Tail Flick: 16.5
[3]; DALA 10 + compound 0.01 μg/kg ICV, 20'
  analgesic activity, Tail Flick: 62.5
[3]; DALA 10 + compound 0.01 μg/kg ICV, 30'
  analgesic activity, Tail Flick: 64.1
[3]; DALA 10 + compound 0.01 μg/kg ICV, 45'
  analgesic activity, Tail Flick: 45.4
[3]; DALA 10 + compound 0.01 μg/kg ICV, 60'
  analgesic activity, Tail Flick: 45.3
[3]; DALA 10 + compound 0.01 μg/kg ICV, 90'
  analgesic activity, Tail Flick: 16.3
[3]; DALA 10 + compound 0.01 μg/kg ICV
  MEAN analgesic activity, Tail Flick: 41.7
[4]; ASA 100 + compound 5 mg/kg i.p.
  TOTAL positives: 12 x/30
[4]; ASA 100 + compound 5 mg/kg i.p., 10'
  positive responses over number treated: 2/5
[4]; ASA 100 + compound 5 mg/kg i.p., 20'
  positive responses over number treated: 2/5
[4]; ASA 100 + compound 5 mg/kg i.p., 30'
  positive responses over number treated: 2/5
[4]; ASA 100 + compound 5 mg/kg i.p., 45'
  positive responses over number treated: 3/5
[4]; ASA 100 + compound 5 mg/kg i.p., 60'
  positive responses over number treated: 3/5
[4]; ASA 100 + compound 5 mg/kg i.p., 90'
  positive responses over number treated: 0/5
[4]; ASA 100 + compound 20 mg/kg i.p.
  TOTAL positives: 17 x/30
[4]; ASA 100 + compound 20 mg/kg i.p., 10'
  positive responses over number treated: 1/5
[4]; ASA 100 + compound 20 mg/kg i.p., 20'
  positive responses over number treated: 3/5
[4]; ASA 100 + compound 20 mg/kg i.p., 30'
  positive responses over number treated: 3/5
[4]; ASA 100 + compound 20 mg/kg i.p., 45'
  positive responses over number treated: 3/5
[4]; ASA 100 + compound 20 mg/kg i.p., 60'
  positive responses over number treated: 4/5
[4]; ASA 100 + compound 20 mg/kg i.p., 90'
  positive responses over number treated: 3/5
[4]; ASA 100 + compound 50 mg/kg i.p.
  TOTAL positives: 22 x/30
[4]; ASA 100 + compound 50 mg/kg i.p., 10'
  positive responses over number treated: 3/5
[4]; ASA 100 + compound 50 mg/kg i.p., 20'
  positive responses over number treated: 2/5
[4]; ASA 100 + compound 50 mg/kg i.p., 30'
  positive responses over number treated: 5/5
[4]; ASA 100 + compound 50 mg/kg i.p., 45'
  positive responses over number treated: 5/5
[4]; ASA 100 + compound 50 mg/kg i.p., 60'
  positive responses over number treated: 4/5
[4]; ASA 100 + compound 50 mg/kg i.p., 90'
  positive responses over number treated: 3/5
[4]; compound 3 mg/kg i.p.
  effect on analgesic activity of propoxyphene: can double the analgesic activity of propoxyphene
[4]; propoxyphene 15 + compound 1 mg/kg i.p.
  TOTAL positives: 16 x/30
[4]; propoxyphene 15 + compound 1 mg/kg i.p., 10'
  positive responses over number treated: 2/5
[4]; propoxyphene 15 + compound 1 mg/kg i.p., 20'
  positive responses over number treated: 2/5
[4]; propoxyphene 15 + compound 1 mg/kg i.p., 30'
  positive responses over number treated: 3/5
[4]; propoxyphene 15 + compound 1 mg/kg i.p., 45'
  positive responses over number treated: 3/5
[4]; propoxyphene 15 + compound 1 mg/kg i.p., 60'
  positive responses over number treated: 3/5
[4]; propoxyphene 15 + compound 1 mg/kg i.p., 90'
  positive responses over number treated: 3/5
[4]; propoxyphene 15 + compound 3 mg/kg i.p.
  TOTAL positives: 25 x/30
[4]; propoxyphene 15 + compound 3 mg/kg i.p., 10'
  positive responses over number treated: 3/5
[4]; propoxyphene 15 + compound 3 mg/kg i.p., 20'
  positive responses over number treated: 5/5
[4]; propoxyphene 15 + compound 3 mg/kg i.p., 30'
  positive responses over number treated: 4/5
[4]; propoxyphene 15 + compound 3 mg/kg i.p., 45'
  positive responses over number treated: 5/5
[4]; propoxyphene 15 + compound 3 mg/kg i.p., 60'
  positive responses over number treated: 4/5
[4]; propoxyphene 15 + compound 3 mg/kg i.p., 90'
  positive responses over number treated: 4/5
[4]; propoxyphene 15 + compound 10 mg/kg i.p.
  TOTAL positives: 27 x/30
[4]; propoxyphene 15 + compound 10 mg/kg i.p., 10'
  positive responses over number treated: 4/5
[4]; propoxyphene 15 + compound 10 mg/kg i.p., 20'
  positive responses over number treated: 5/5
[4]; propoxyphene 15 + compound 10 mg/kg i.p., 30'
  positive responses over number treated: 5/5
[4]; propoxyphene 15 + compound 10 mg/kg i.p., 45'
  positive responses over number treated: 5/5
[4]; propoxyphene 15 + compound 10 mg/kg i.p., 60'
  positive responses over number treated: 5/5
[4]; propoxyphene 15 + compound 10 mg/kg i.p., 90'
  positive responses over number treated: 3/5
[4]; with propoxyphene
  dose of maximum effect (propoxyphene potentiation): 10 mg/kg i.p.
[1]
  ED50: 77.5 mg/kg
[5]; 24 h
  percentage variation in latency time (Effect %): 53.36%
[5]; 48 h
  percentage variation in latency time (Effect %): 48.17%
[5]; 72 h
  percentage variation in latency time (Effect %): 53.67%
[5]; 96 h
  percentage variation in latency time (Effect %): 31.56%
[5]; 120 h
  percentage variation in latency time (Effect %): 41.67%
[5]; 144 h
  percentage variation in latency time (Effect %): 14.48%
[5]; 168 h
  percentage variation in latency time (Effect %): 13.75%
[5]; time 0
  percentage variation in latency time (Effect %): 72.15%
[6]; 12.5 mg/kg i.v.
  % increase in biliary flow with respect to controls: +48.5%
[6]; 25 mg/kg i.v.
  % increase in biliary flow with respect to controls: +63.9%
[6]; 50 mg/kg i.v.
  % increase in biliary flow with respect to controls: +108.0%
[6]; Rattus norvegicus, iv, average over 2 hours, read-out: ED50 (dose causing 50% increase in biliary flow)
  ED50: 19.4 mg/kg
